{
  "source": "paper PMC4671658",
  "about": "“Release of 50 new, drug-like compounds and their computational target predictions for open source anti-tubercular drug discovery” (PLoS ONE, 2015)",
  "key": {"physchem [1]": {"assay": "physchem", "conditions": "pH 7.4"}, "M. bovis BCG Pasteur": {"system": "M. bovis BCG Pasteur", "assay": "microbe, parasite or virus in culture", "type": "cell-based, Mycobacterium bovis BCG", "conditions": "for IC50: Mycobacterium tuberculosis variant bovis BCG, BCG, read-out: BCG pIC50 (converted)"}, "HepG2 cells": {"system": "HepG2 cells", "conditions": "HepG2, 48 h"}, "physchem [2]": {"assay": "physchem", "conditions": "pH 7.4, kinetic from dmso stock"}, "M. tuberculosis H37Rv": {"system": "M. tuberculosis H37Rv", "assay": "M. tuberculosis inhibition assay (MABA, resazurin) MIC", "type": "cell-based", "conditions": "Mycobacterium tuberculosis"}, "[3]": {"system": "non-replicating M. tuberculosis H37Rv", "assay": "Activity against non-replicating Mycobacterium tuberculosis", "conditions": "non-replicating conditions; for ACT In NR % inhibition: active/inactive call, experiments with inh > 50%"}, "[4]": {"system": "M. tuberculosis H37Rv in infected THP1 cells", "assay": "Intracellular assay (luciferase H37Rv in THP1 cells)", "type": "cell-based, Mycobacterium tuberculosis", "conditions": "for IC50: Mycobacterium tuberculosis, H37RV, THP-1, 120 h, read-out: ACT In Intracellular pX50 (converted)"}},
  "data": [
    {"smiles": "COc1ccc2nccc(NC(=O)C3CCN(CCc4ccc(Cl)cc4)CC3)c2n1", "note": "[TCMDC-143649]", "values": [
      {"measurement": "chromatographic logD", "setting": "physchem [1]", "value": 5.49},
      {"measurement": "IC50", "setting": "M. bovis BCG Pasteur", "value": 5010, "unit": "nM"},
      {"measurement": "TOX50 HepG2", "setting": "HepG2 cells", "value": "> 100", "unit": "µM"},
      {"measurement": "solubility", "setting": "physchem [2]", "value": 4, "unit": "µg/mL"},
      {"measurement": "MIC", "setting": "M. tuberculosis H37Rv", "value": 0.2, "unit": "µM"},
      {"measurement": "ACT In NR pXC50", "setting": "[3]", "value": "5,1"},
      {"measurement": "ACT In NR % inhibition", "setting": "[3]", "value": "ACTIVE 7 expts out of 10 with inh > 50%"}
    ]},
    {"smiles": "NS(=O)(=O)c1ccc(Nc2cnc3ccccc3n2)cc1", "note": "[TCMDC-143656]", "values": [
      {"measurement": "chromatographic logD", "setting": "physchem [1]", "value": 1.07},
      {"measurement": "IC50", "setting": "M. bovis BCG Pasteur", "value": 6310, "unit": "nM"},
      {"measurement": "TOX50 HepG2", "setting": "HepG2 cells", "value": "> 100", "unit": "µM"},
      {"measurement": "solubility", "setting": "physchem [2]", "value": 112, "unit": "µg/mL"},
      {"measurement": "MIC", "setting": "M. tuberculosis H37Rv", "value": 2, "unit": "µM"},
      {"measurement": "ACT In NR % inhibition", "setting": "[3]", "value": "INACTIVE"}
    ]},
    {"smiles": "CNc1nc(SC)nnc1-c1cccc(Cl)c1Cl", "note": "[TCMDC-143661]", "values": [
      {"measurement": "chromatographic logD", "setting": "physchem [1]", "value": 4.94},
      {"measurement": "IC50", "setting": "M. bovis BCG Pasteur", "value": 12600, "unit": "nM"},
      {"measurement": "Mtb specific (inactive against M. bovis BCG)", "setting": "M. bovis BCG Pasteur; hit in Mtb screen, not in BCG screen", "value": "Mtb specific"},
      {"measurement": "TOX50 HepG2", "setting": "HepG2 cells", "value": "> 100", "unit": "µM"},
      {"measurement": "IC50", "setting": "[4]", "value": 794, "unit": "nM"},
      {"measurement": "solubility", "setting": "physchem [2]", "value": 85, "unit": "µg/mL"},
      {"measurement": "MIC", "setting": "M. tuberculosis H37Rv", "value": 2.5, "unit": "µM"},
      {"measurement": "ACT In NR % inhibition", "setting": "[3]", "value": "INACTIVE"}
    ]},
    {"smiles": "Nc1ccccc1Nc1ccc(Cl)cc1", "note": "[TCMDC-143654]", "values": [
      {"measurement": "chromatographic logD", "setting": "physchem [1]", "value": 5.76},
      {"measurement": "IC50", "setting": "M. bovis BCG Pasteur", "value": 100, "unit": "nM"},
      {"measurement": "TOX50 HepG2", "setting": "HepG2 cells", "value": 79, "unit": "µM"},
      {"measurement": "IC50", "setting": "[4]", "value": 15.8, "unit": "nM"},
      {"measurement": "solubility", "setting": "physchem [2]", "value": 59, "unit": "µg/mL"},
      {"measurement": "MIC", "setting": "M. tuberculosis H37Rv", "value": 2, "unit": "µM"},
      {"measurement": "ACT In NR pXC50", "setting": "[3]", "value": "4,5"},
      {"measurement": "ACT In NR % inhibition", "setting": "[3]", "value": "ACTIVE 8 expts out of 11 with inh > 50%"}
    ]},
    {"smiles": "NCC(c1cccs1)S(=O)(=O)c1ccccc1", "note": "(centres unmarked) [TCMDC-143655]", "values": [
      {"measurement": "chromatographic logD", "setting": "physchem [1]", "value": 2.5},
      {"measurement": "IC50", "setting": "M. bovis BCG Pasteur", "value": 5010, "unit": "nM"},
      {"measurement": "TOX50 HepG2", "setting": "HepG2 cells", "value": 32, "unit": "µM"},
      {"measurement": "solubility", "setting": "physchem [2]", "value": 134, "unit": "µg/mL"},
      {"measurement": "MIC", "setting": "M. tuberculosis H37Rv", "value": 2, "unit": "µM"},
      {"measurement": "ACT In NR % inhibition", "setting": "[3]", "value": "INACTIVE"}
    ]},
    {"smiles": "Cc1ccc2oc(SCC(=O)Nc3nccs3)nc2n1", "note": "[TCMDC-143682]", "values": [
      {"measurement": "Inhibition of intracellular growth (active = pIC50 above 5)", "setting": "[4]; THP1 cells, the one compound of 26 tested that was not active", "value": "all but one (TCMDC-143682) were active"}
    ]},
    {"smiles": "O=C(NCc1ccco1)N1CCN(Cc2ccc3c(c2)OCO3)CC1", "note": "[TCMDC-143650]", "values": [
      {"measurement": "chromatographic logD", "setting": "physchem [1]", "value": 3.48},
      {"measurement": "IC50", "setting": "M. bovis BCG Pasteur", "value": 1260, "unit": "nM"},
      {"measurement": "TOX50 HepG2", "setting": "HepG2 cells", "value": "> 100", "unit": "µM"},
      {"measurement": "solubility", "setting": "physchem [2]", "value": 86, "unit": "µg/mL"},
      {"measurement": "MIC", "setting": "M. tuberculosis H37Rv", "value": 1.25, "unit": "µM"},
      {"measurement": "ACT In NR % inhibition", "setting": "[3]", "value": "INACTIVE"}
    ]},
    {"smiles": "O=C(NCc1ccco1)N1CCN(Cc2ccc3c(c2)CCO3)CC1", "note": "[TCMDC-143652]", "values": [
      {"measurement": "chromatographic logD", "setting": "physchem [1]", "value": 3.47},
      {"measurement": "IC50", "setting": "M. bovis BCG Pasteur", "value": 2510, "unit": "nM"},
      {"measurement": "TOX50 HepG2", "setting": "HepG2 cells", "value": "> 100", "unit": "µM"},
      {"measurement": "solubility", "setting": "physchem [2]", "value": 88, "unit": "µg/mL"},
      {"measurement": "MIC", "setting": "M. tuberculosis H37Rv", "value": 2, "unit": "µM"},
      {"measurement": "ACT In NR % inhibition", "setting": "[3]", "value": "INACTIVE"}
    ]},
    {"smiles": "CCCC/C=C/c1cc2ccncc2cc1OC1CCNCC1", "note": "[TCMDC-143651]", "values": [
      {"measurement": "chromatographic logD", "setting": "physchem [1]", "value": 3.61},
      {"measurement": "IC50", "setting": "M. bovis BCG Pasteur", "value": 2510, "unit": "nM"},
      {"measurement": "TOX50 HepG2", "setting": "HepG2 cells", "value": 16, "unit": "µM"},
      {"measurement": "IC50", "setting": "[4]", "value": 1260, "unit": "nM"},
      {"measurement": "solubility", "setting": "physchem [2]", "value": 36, "unit": "µg/mL"},
      {"measurement": "MIC", "setting": "M. tuberculosis H37Rv", "value": 1.6, "unit": "µM"},
      {"measurement": "ACT In NR % inhibition", "setting": "[3]", "value": "INACTIVE"}
    ]},
    {"smiles": "O=C(NCc1ccco1)N1CCN(Cc2ccc(Cl)s2)CC1", "note": "[TCMDC-143653]", "values": [
      {"measurement": "chromatographic logD", "setting": "physchem [1]", "value": 4.82},
      {"measurement": "IC50", "setting": "M. bovis BCG Pasteur", "value": 1260, "unit": "nM"},
      {"measurement": "TOX50 HepG2", "setting": "HepG2 cells", "value": "> 100", "unit": "µM"},
      {"measurement": "IC50", "setting": "[4]", "value": 2510, "unit": "nM"},
      {"measurement": "solubility", "setting": "physchem [2]", "value": 98, "unit": "µg/mL"},
      {"measurement": "MIC", "setting": "M. tuberculosis H37Rv", "value": 2, "unit": "µM"},
      {"measurement": "ACT In NR % inhibition", "setting": "[3]", "value": "INACTIVE"}
    ]}
  ]
}
